One data set concerns FITC‐fibrin. Description: Fibrinolytic activity in pleural fluids (FITC-fibrin film assay), empyema. Type of data set: in vivo, rabbit. To be noted: PAI-1-TFT with 2.0 mg/kg DSP, infectious pleural injury; for Steady-state level of pleural fluid fibrinolytic activity: relative to supplemented baseline. The method, then: A Pilot Fibrinolytic Assay (FPA96F) was used to measure fibrinolytic potential (Beckert et al., 2019; Florova et al., 2015) and fibrinolytic activity (Florova et al., 2015, 2018; Komissarov et al., 2016) in pleural fluid samples. To prepare a FITC‐fibrin film, a 1:1 mixture of FITC‐tagged and unlabeled fibrinogen (0.4 mg/ml) in 0.05 M Hepes/NaOH (pH 7.5, 130 mM NaCl, 5 mM CaCl2) buffer at room temperature was transferred to black 96‐well flat bottom plates from Costar (Corning Inc, NY). Human thrombin (final concentration 10 nM) was added to each well and plates were dried overnight in a dark chemical hood at room temperature. 96‐well plates with FITC‐fibrin film were washed three times with 0.3 ml of cold Hepes/NaOH buffer and stored at −20°C up to one year. Fibrinolytic activity in pleural fluids was calculated from the slopes of time‐dependences of an increase in the fluorescence emission at 512 nm (excitation at 490 nm) due to the degradation of FITC‐fibrin. Fibrinolytic potential was determined as the difference between fibrinolytic activity in samples of pleural fluid at baseline (BL) or 24 h measured with and without supplementation with sctPA (Florova et al., 2015). To determine whether PAI‐1‐TFT affects fibrinolytic potential in rabbits, BL values were plotted against fibrinolytic potential at 24 h and the linear correlation was determined using Sigmaplot 14.0.

Data set [1] relates to chemically induced (TCN) pleural injury. Description: Fibrinolytic therapy of TCN-induced pleural injury in rabbits (GLIS, pleural thickening). Type of data set: in vivo, rabbit. The note with it: outcome at 24 h. An excerpt: All animal procedures were approved by the Institutional Animal Care and Use Committee at The University of Texas Health Science Center at Tyler (IACUC protocols 499,616,617). Studies used female, pathogen‐free New Zealand white rabbits (3.0–3.6 kg; average age 18 weeks) from Charles River Laboratories (Wilmington, MA). These studies required a total of 107 rabbits, 43 for the model of TCN‐induced pleural injury and 64 for the model of empyema. […] Accumulation of pleural fluid and fibrin deposition was monitored using ultrasonography; detailed in the ultrasonography subsection. […] Animals were monitored carefully for signs of distress, pain, and worsening clinical status. […]
Development of pleural injury was monitored via ultrasonography. […]
For each animal, gross lung injury scores (GLIS) were calculated as previously described (Florova et al., 2015; Karandashova et al., 2013; Komissarov et al., 2013). […] Pleural thickening was measured using morphometry, as previously described (Komissarov et al., 2016).

Some results are limits rather than exact numbers.

As to Alteplase [sctPA, reference compound], in the data set with FITC‐fibrin, the “kobs of decrease in pleural fluid fibrinolytic activity to steady state” value was determined as 0.48 ± 0.07 min⁻¹ and the “Steady-state level of pleural fluid fibrinolytic activity” value is on record as 1.5%. For the same substance, the “Gross lung injury score (GLIS)” value in data set [1] (sctPA 72.5 µg/kg alone (1/2 of MED), n = 5) was greater than 10.

Consider Prourokinase [scuPA], for which, in the data set with FITC‐fibrin, the “kobs of decrease in pleural fluid fibrinolytic activity to steady state” value stood at 0.16 ± 0.06 min⁻¹ and the “Steady-state level of pleural fluid fibrinolytic activity” value was determined as 2.5%. Besides, the “Gross lung injury score (GLIS)” value in data set [1] (scuPA 62.5 µg/kg alone (1/8 of MED), n = 6) is on record as greater than 10.

The values are drawn from article PMC8123555, “Precision targeting of the plasminogen activator inhibitor‐1 mechanism increases efficacy of fibrinolytic therapy in empyema” (Physiological Reports, 2021).
